The results in this text go back to patent US9232796B2, “Herbicidal compositions comprising 4-amino-3-chloro-5-fluoro-6-(4-chloro-2-fluoro-3-methoxyphenyl) pyridine-2-carboxylic acid or a derivative thereof and acetyl-CoA carboxylase (ACCase) inhibitors” (DOW AGROSCIENCES LLC, priority 2012, dated 2016).

The test system of one experiment is ECHCG. Description: Example V (second) postemergence foliar-applied ternary mixtures, greenhouse, direct seeded rice weeds. Type of experiment: in vivo, Echinochloa crus-galli (L.) Beauv. The source says:
(§1) Seeds or nutlets of the desired test plant species were planted in a soil matrix prepared by mixing a sandy loam or loam soil (e.g., 32 percent silt, 23 percent clay, and 45 percent sand, with a pH of about 6.5 and an organic matter content of about 1.9 percent) and calcareous grit in an 80 to 20 ratio. The soil matrix was contained in plastic pots with a volume of 1 quart and a surface area of 83.6 square centimeters (cm^2). When required to ensure good germination and healthy plants, a fungicide treatment and/or other chemical or physical treatment was applied. The plants were grown for 8-22 days in a greenhouse with an approximate 14 hr. photoperiod which was maintained at about 29° C. during the day and 26° C. during the night. Nutrients (Peters Excel® 15-5-15 5-Ca 2-Mg and iron chelate) were applied in the irrigation solution as needed and water was added on a regular basis. Supplemental lighting was provided with overhead metal halide 1000-Watt lamps as necessary. The plants were employed for testing when they reached the first through fourth true leaf stage.
(§2) Treatments consisted of the benzyl ester of 4-amino-3-chloro-5-fluoro-6-(4-chloro-2-fluoro-3-methoxy-phenyl)pyridine-2-carboxylic acid (Compound A), formulated as an SC (suspension concentrate), an ACCase inhibitor, and a third herbicidal component, each applied alone and in ternary combination. Forms of compound A were applied on an acid equivalent basis.
The ACCase inhibitor component was applied on an active ingredient basis and included cyhalofop-R-butyl formulated as Clincher® SF, fenoxaprop-p-ethyl formulated as RiceStar® HT, and profoxydim formulated as Aura® 20EC. Other herbicidal components were applied on an active ingredient or acid equivalent basis depending on the compound and included penoxsulam formulated as Grasp® SC, bentazon sodium formulated as Basagran®, triclopyr […] (TEA) salt formulated as Grandstand® R, bispyribac sodium formulated as Regiment® 80WP, imazamox ammonium formulated as Beyond®, benzobicyclon, quinclorac formulated as Facet® 75DF, glyphosate dimethylammonium (DMA) salt formulated as Durango® DMA, glufosinate ammonium formulated as Ignite® 280, fentrazamide formulated as an emulsifiable concentrate (EC), propyrisulfuron formulated as Zeta One®, and indanofan (technical grade material).
(§3) Treatment requirements were calculated based upon the rates being tested, the concentration of active ingredient or acid equivalent in the formulation, and a 12 mL application volume at a rate of 187 L/ha.
(§4) For treatments comprised of formulated compounds, measured amounts of compounds were placed individually in 25 mL glass vials and diluted in a volume of 1.25% (v/v) Agri-Dex® crop oil concentrate to obtain 12× stock solutions. […] Application solutions were prepared by adding an appropriate amount of each stock solution (e.g., 1 mL) and diluted to the appropriate final concentrations with the addition of 9 mL of an aqueous mixture of 1.25% (v/v) crop oil concentrate so that the final spray solutions contained 1.25% (v/v) crop oil concentrate.
(§5) As required, additional water and/or 97:3 v/v acetone/DMSO was added to individual application solutions so that the final acetone and DMSO concentrations of the application solutions being compared were 8.1% and 0.25%, respectively.
(§6) All stock solutions and applications solutions were visually inspected for compound compatibility prior to application. Spray solutions were applied to the plant material with an overhead Mandel track sprayer equipped with a 8002E nozzles calibrated to deliver 187 L/ha over an application area of 0.503 m^2 at a spray height of 18 inches (46 cm) above average plant canopy height. Control plants were sprayed in the same manner with the solvent blank.
The treated plants and control plants were placed in a greenhouse as described above and watered by sub-irrigation to prevent wash-off of the test compounds. […]

Experiment [1] relates to ECHOR. Described as above. Type of experiment: in vivo, Echinochloa oryzoides (Ard.) Fritsch. On the procedure:
as §1, with “When required to ensure good germination and healthy plants, a fungicide treatment and/or other chemical or physical treatment was applied.” left out
as §2, §4, §5, §6
The treated plants and control plants were placed in a greenhouse as described above and watered by sub-irrigation to prevent wash-off of the test compounds. After approximately 3 weeks, the condition of the test plants as compared with that of the untreated plants was determined visually and scored on a scale of 0 to 100 percent where 0 corresponds to no injury or growth inhibition and 100 corresponds to complete kill.
(§7) Colby's equation was used to determine the herbicidal effects expected from the mixtures (Colby, S. R. 1967. Calculation of the synergistic and antagonistic response of herbicide combinations. Weeds 15:20-22.).
The following equation was used to calculate the expected activity of mixtures containing three active ingredients, A, B, and C: Expected=A+B+C−((A×B+A×C+B×C)/100)+(A×B×C/10000)

A further experiment concerns IPOHE. Description: Example I postemergence foliar-applied, greenhouse, direct seeded rice weeds. Type of experiment: in vivo, Ipomoea hederacea Jacq.
Source text: Seeds or nutlets of the desired test plant species were planted in a soil matrix prepared by mixing a loam or sandy loam soil (e.g., 28.6 percent silt, 18.8 percent clay, and 52.6 percent sand, with a pH of about 5.8 and an organic matter content of about 1.8 percent) and calcareous grit in an 80 to 20 ratio. The soil matrix was contained in plastic pots with a volume of 1 quart and a surface area of 83.6 square centimeters (cm^2). When required to ensure good germination and healthy plants, a fungicide treatment and/or other chemical or physical treatment was applied. The plants were grown for 8-22 days in a greenhouse with an approximate 14 hr. photoperiod which was maintained at about 29° C. during the day and 26° C. during the night. Nutrients (Peters Excel® 15-5-15 5-Ca 2-Mg and iron chelate) were applied in the irrigation solution as needed and water was added on a regular basis. Supplemental lighting was provided with overhead metal halide 1000-Watt lamps as necessary. The plants were employed for testing when they reached the first through fourth true leaf stage.
Treatments consisted of the acid or esters of 4-amino-3-chloro-5-fluoro-6-(4-chloro-2-fluoro-3-methoxy-phenyl)pyridine-2-carboxylic acid (Compound A), each formulated as an SC (suspension concentrate), and various herbicidal components alone and in combination.
Other herbicidal components were applied on an acid equivalent (ae) or active ingredient (ai) basis and included acetyl coA carboxylase (ACCase)-inhibiting herbicides (cyclohexanedione and aryloxyphenoxypropionate chemical classes) cyhalofop-butyl formulated as Clincher® SF (285 gr ai/L EC), diclofop-methyl formulated as Hoelon® 3EC, fenoxaprop-p-ethyl+isoxadifen-ethyl formulated as RiceStar® HT (0.58 lb./gal EC), fenoxaprop-p-ethyl+mefenpyr diethyl formulated as Puma® IEC, metamifop formulated as Metamifop EC, haloxyfop-methyl formulated as Gallant Super®, fluazifop-p-butyl formulated as Fusilade® DX, quizalofop-p-ethyl formulated as Assure® II, profoxydim formulated as Aura® 20EC, clethodim applied as Intensity®, sethoxydim formulated as Poast®, and tralkoxydim formulated as Achieve®.
as §3
For treatments comprised of formulated compounds, measured amounts of compounds were placed individually in 25 mL glass vials and diluted in a volume of 1.25% (v/v) Agri-Dex® crop oil concentrated to obtain 12× stock solutions. […] Application solutions were prepared by adding an appropriate amount of each stock solution (e.g., 1 mL) and diluted to the appropriate final concentrations with the addition of 10 mL of an aqueous mixture of 1.25% (v/v) crop oil concentrate so that the final spray solutions contained 1.25+/−0.05% (v/v) crop oil concentrate.
All stock solutions and applications solutions were visually inspected for compound compatibility prior to application. Spray solutions were applied to the plant material with an overhead Mandel track sprayer equipped with a 8002E nozzles calibrated to deliver 187 L/ha over an application area of 0.503 m^2 at a spray height of 18 to 20 inches (46 to 50 cm) above average plant canopy height. Control plants were sprayed in the same manner with the solvent blank.
The treated plants and control plants were placed in a greenhouse as described above and watered by sub-irrigation to prevent wash-off of the test compounds. After approximately 3 weeks, the condition of the test plants as compared with that of the untreated plants was determined visually and scored on a scale of 0 to 100 percent where 0 corresponds to no injury or growth inhibition and 100 corresponds to complete kill. […]

Experiment [2] deals with ECHOR. Kind of experiment: Example II in-water applied, greenhouse, transplanted paddy rice weeds. Format: in vivo, Echinochloa oryzoides (Ard.) Fritsch. The note with it: in-water. The method, then: (§8) Weed seeds or nutlets of the desired test plant species were planted in puddled soil (mud) prepared by mixing a shredded, non-sterilized mineral soil (50.5 percent silt, 25.5 percent clay, and 24 percent sand, with a pH of about 7.6 and an organic matter content of about 2.9 percent) and water at a 1:1 volumetric ratio. The prepared mud was dispensed in 365 mL aliquots into 16-ounce (oz.) non-perforated plastic pots with a surface area of 86.59 square centimeters (cm^2) leaving a headspace of 3 centimeters (cm) in each pot. Mud was allowed to dry overnight prior to planting or transplanting. Rice seeds were planted in Sun Gro MetroMix® 306 planting mixture, which typically has a pH of 6.0 to 6.8 and an organic matter content of about 30 percent, in plastic plug trays. Seedlings at the second or third leaf stage of growth were transplanted into 860 mL of mud contained in 32-oz. non-perforated plastic pots with a surface area of 86.59 cm^2 4 days prior to herbicide application. The paddy was created by filling the headspace of the pots with 2.5 to 3 cm of water. […] The plants were grown for 4-22 days in a greenhouse with an approximate 14 hr. photoperiod which was maintained at about 29° C. during the day and 26° C. during the night. Nutrients were added as Osmocote® (19:6:12, N:P:K+minor nutrients) at 2 g per 16-oz. pot and 4 g per 32-oz. pot. Water was added on a regular basis to maintain the paddy flood, and supplemental lighting was provided with overhead metal halide 1000-Watt lamps as necessary. The plants were employed for testing when they reached the first through fourth true leaf stage.
(§9) Treatments consisted of the acid or esters of 4-amino-3-chloro-5-fluoro-6-(4-chloro-2-fluoro-3-methoxy-phenyl)pyridine-2-carboxylic acid (compound A) each formulated as an SC (suspension concentrate) and various herbicidal components alone and in combination.
(§10) For formulated compounds, a measured amount was placed in an individual 100 or 200 mL glass vial and was dissolved in a volume of 1.25% (v/v) Agri-Dex® crop oil concentrate to obtain application solutions.
(§11) Applications were made by injecting with a pipetter appropriate amounts of the application solutions, individually and sequentially, into the aqueous layer of the paddy. Control plants were treated in the same manner with the solvent blank. Applications were made so that all treated plant material received the same concentrations of acetone and crop oil concentrate.
(§12) The treated plants and control plants were placed in a greenhouse as described above and water was added as needed to maintain a paddy flood. After approximately 3 weeks the condition of the test plants as compared with that of the untreated plants was determined visually and scored on a scale of 0 to 100 percent where 0 corresponds to no injury or growth inhibition and 100 corresponds to complete kill.
as §7
(§13) The following equation was used to calculate the expected activity of mixtures containing two active ingredients, A and B: Expected=A+B−(A×B/100)

Another experiment relates to CYPRO. The description is as above. Format: in vivo, Cyperus rotundus L. On the procedure:
as §8, §9, §10, §11, §12, §7, §13

For the compound `CCN(C(=O)n1nnn(-c2ccccc2Cl)c1=O)C1CCCCC1` [Fentrazamide], the “Visual Weed Control (%) - 22 DAA ECHCG Obs” value in the experiment with ECHCG (33.75 gai/ha) and in the experiment with ECHCG (67.5 gai/ha) was 0% throughout. Moreover, the “Visual Weed Control (%)- 22 DAA ECHOR Obs” value is 3% with ECHOR [1] (33.75 gai/ha) and 0% with ECHOR [1] (67.5 gai/ha).

With `CCCCOC(=O)[C@@H](C)Oc1ccc(Oc2ccc(C(F)(F)F)cn2)cc1` [Fluazifop-p-butyl, butyl(2R)-2-[4-[[5-(trifluoromethyl)-2-pyridinyl]oxy]phenoxy]propanoate, reference compound], the “Visual Weed Control (%) - 19 DAA IPOHE Obs” value in the experiment with IPOHE (45 gae/ha), in the experiment on IPOHE (90 gae/ha) and in the experiment on IPOHE (180 gae/ha) was 0% in each case. The “Visual Weed Control (%) - 21 DAA ECHOR Obs” value with ECHOR [2] (45 gai/ha) stood at 0%; with ECHOR [2] (Fluazifop-P-butyl 90 gae/ha) it was 25%. Further, the “Visual Weed Control (%) - 21 DAA CYPRO Obs” value in the experiment with CYPRO (Fluazifop-P-butyl 90 gae/ha) and in the experiment on CYPRO (Fluazifop-P-butyl 180 gae/ha) was 0% throughout.

On to `CCCc1ccc2nc(Cl)c(S(=O)(=O)NC(=O)Nc3nc(OC)cc(OC)n3)n2n1` [Propyrisulfuron], for which, in the experiment on ECHOR [1] (22.5 gai/ha), the “Visual Weed Control (%) - 22 DAA ECHOR Obs” value came out at 55%.
